From patent US8940310B2, “Methods of treatment using TLR7 and/or TLR9 inhibitors” (Dynavax Technologies Corporation, priority 2010, dated 2015)
Marks after values point to notes of the source that are not given here.

Experiments:
[1] = Monomer and tetramer formation of IRPs, size-exclusion HPLC; assay type: physicochemical; conditions: 100 mg/mL in PBS and 0.5M KCl, room temperature, five weeks
Protocol: Solutions were prepared of the by mixing 100 mg/mL of the IRP sequences in PBS and 0.5M KCl and storing at room temperature for three to five weeks. The solutions were subsequently analyzed by size-exclusion HPLC.

[2] = High dosages of IRPs in rats (weight, deaths, histology); assay type: in vivo, Sprague Dawley rats; conditions: for Heart: Cell Vacuolation, number of animals / Heart: Hemorrhage, number of animals / Heart: Mononuclear Cell Infiltration, number of animals / Heart: Necrosis, number of animals / Heart: No significant changes, number of animals / Liver: Liver changes, number of animals / Liver: Mixed cell infiltration, number of animals / Liver: Necrosis, number of animals / Liver: No significant changes, number of animals / Liver: Vacuolation, number of animals / Right Kidney: Hydronephrosis, number of animals / Right Kidney: Mineralization, number of animals / Right Kidney: Necrosis, number of animals / Right Kidney: No significant changes, number of animals / Right Kidney: Tubular basophilia, number of animals / Right Kidney: Tubular changes, number of animals: 6 animals
Protocol: To test the activity of IRPs at high dosages in rats, IRPs (SEQ ID NO:42 and SEQ ID NO:109) or a control (PBS) were subcutaneously administered to 8-9 weeks old, […], 3, 6, and 9 (n=6 per group). Rats were weighed prior to administration and on days 1, 3, 4, 6, 7, and 9. Organs were harvested at the end of the study, and organ weights and tissues levels of the oligonucleotides were determined. In addition, histolocial evaluation of the liver, kidney, and heart was performed.
Rats were weighed prior to administration and on days 1, 3, 6, 7, and 9. Organs were harvested at the end of the study, and organ weights and tissues levels of the oligonucleotides were determined. In addition, histological evaluation of the liver, kidney, and heart was performed.

[3] = High dosages of IRPs in mice (weight, histology); assay type: in vivo, BALB/c mice; conditions: for Liver: Liver changes, number of animals / Liver: Mixed cell infiltration, number of animals / Liver: No significan changes, number of animals / Right Kidney: No significant changes, number of animals / Right Kidney: Tubular basophilia, number of animals / Right Kidney: Tubular changes, number of animals: 6 animals; for Heart: No significant changes, number of animals: tissue missing in two animals
Protocol: To test the activity of IRPs at high dosages in mice, IRPs or a control (saline) were subcutaneously administered to BALB/c mice at a dosage of 4 mg/kg, 20 mg/kg, 50 mg/kg, or 100 mg/kg on days 1, 4, 7, and 10 (n=5 per group). Mice were weighed prior to administration and on days 2, 4, 7, 9, and 11. Serum cytokines were assayed at two hours post the first and third injections and 24 hours post the fourth injection. Organs were harvested at the end of the study, and organ weights and tissues levels of the oligonucleotides were determined. In addition, histological evaluation of the liver, kidney, and heart was performed.
Mice were weighed prior to administration and on days 1, 3, 4, 6, 7, and 9. Organs were harvested at the end of the study, and organ weights and tissues levels of the oligonucleotides were determined. In addition, histological evaluation of the liver, kidney, and heart was performed.

human B-cells = assay: Human B-cells cultured in the presence of IRPs, IL-6; conditions: for Normalized IL-6 Response (Percentage of Positive Control): Experiment # 3, Max Conc 4.0 uM; for B-cell stimulatory activity: FIG. 1C, percent IL-6 from CpG-ISS
Protocol: For the human B-cell assay, B-cells were purified from total blood cells obtained from healthy donors using magnetic beads (CD19 positive). Cells were resuspended in fresh medium (RPMI 1640 with 10% fetal calf serum, 50 units/mL penicillin, 50 μg/mL streptomycin, and 2 mM glutamine). At 48 hours, supernatants were collected and cytokine levels, IL-6, were measured using immunoassay.
To further investigate the effect of IRPs on B-cell stimulatory activity, a wide variety of IRP sequences were assayed for IL-6, along with positive and negative controls. The experiment was performed as described in Example 1 using doses of IRP of either 4.0 μM or 2.0 μM. The positive control was an immunostimulatory sequence (ISS) with SEQ ID NO:157. […] The results are presented as the average normalized IL-6 response over several experiments.

[4] = rat, 10 mg/kg, 0 = no change to 4 = severe
[5] = rat, 90 mg/kg, 0 = no change to 4 = severe
[6] = 50 mg/kg, 0 = no change to 4 = severe
[7] = 100 mg/kg, 0 = no change to 4 = severe

## 5′-TGC TCC TGG AGI GGT TG-HEG-T-3′ (DNA TGCTCCTGGAGNGGTTGNT; inosine, internal HEG spacer, chemistry not fully specified) [SEQ ID NO:143]
[1]
  fraction in monomer form: 100%
[2]; rat histology
  toxicity profile: favorable toxicity profiles
[2]; rat, 10 mg/kg
  Heart: Cell Vacuolation, number of animals: 0
  Heart: Hemorrhage, number of animals: 0
  Heart: Mononuclear Cell Infiltration, number of animals: 0
  Heart: Necrosis, number of animals: 0
  Heart: No significant changes, number of animals: 6
  Liver: Liver changes, number of animals: 0
  Liver: Mixed cell infiltration, number of animals: 5
  Liver: Necrosis, number of animals: 0
  Liver: No significant changes, number of animals: 1
  Liver: Vacuolation, number of animals: 2
  Right Kidney: Hydronephrosis, number of animals: 0
  Right Kidney: Mineralization, number of animals: 1
  Right Kidney: Necrosis, number of animals: 0
  Right Kidney: No significant changes, number of animals: 0
  Right Kidney: Tubular basophilia, number of animals: 0
  Right Kidney: Tubular changes, number of animals: 6
[2]; [4]
  Liver: Mixed cell infiltration, mean severity score: 1.4
  Liver: Vacuolation, mean severity score: 1.5
  Right Kidney: Mineralization, mean severity score: 2.0
  Right Kidney: Tubular changes, mean severity score: 1.1
[2]; rat, 90 mg/kg
  Heart: cellular vacuolation: present in some animals
  Kidney: tubular basophilia: occurred
  Liver: hepatocellular cytoplasmic vacuolation: hepatocellular cytoplasmic vacuolation
  Heart: Cell Vacuolation, number of animals: 5
  Heart: Hemorrhage, number of animals: 0
  Heart: Mononuclear Cell Infiltration, number of animals: 0
  Heart: Necrosis, number of animals: 0
  Heart: No significant changes, number of animals: 1
  Liver: Liver changes, number of animals: 6
  Liver: Mixed cell infiltration, number of animals: 1
  Liver: Necrosis, number of animals: 0
  Liver: No significant changes, number of animals: 0
  Liver: Vacuolation, number of animals: 5
  Right Kidney: Hydronephrosis, number of animals: 0
  Right Kidney: Mineralization, number of animals: 2
  Right Kidney: Necrosis, number of animals: 0
  Right Kidney: No significant changes, number of animals: 0
  Right Kidney: Tubular basophilia, number of animals: 3
  Right Kidney: Tubular changes, number of animals: 6
[2]; [5]
  Heart: Cell Vacuolation, mean severity score: 1.0
  Liver: Liver changes, mean severity score: 2.1
  Liver: Mixed cell infiltration, mean severity score: 1.0
  Liver: Vacuolation, mean severity score: 2.7
  Right Kidney: Mineralization, mean severity score: 2.0
  Right Kidney: Tubular basophilia, mean severity score: 1.0
  Right Kidney: Tubular changes, mean severity score: 1.8
[3]; 50 mg/kg
  Heart: Chronic inflammation, number of animals: 2
  Heart: Mineralization, number of animals: 1
  Liver: Liver changes, number of animals: 6
  Liver: Mixed cell infiltration, number of animals: 6
  Liver: No significan changes, number of animals: 0
  Right Kidney: No significant changes, number of animals: 5
  Right Kidney: Tubular basophilia, number of animals: 1
  Right Kidney: Tubular changes, number of animals: 0
  Heart: No significant changes, number of animals: 1**
[3]; [6]
  Heart: Chronic inflammation, mean severity score: 2.0
  Heart: Mineralization, mean severity score: 4.0
  Liver: Liver changes, mean severity score: 2.0
  Liver: Mixed cell infiltration, mean severity score: 3.0
  Right Kidney: Tubular basophilia, mean severity score: 2.0
[3]; 100 mg/kg
  Heart: Chronic inflammation, number of animals: 0
  Heart: Mineralization, number of animals: 1
  Liver: Liver changes, number of animals: 0
  Liver: Mixed cell infiltration, number of animals: 1
  Liver: No significan changes, number of animals: 5
  Right Kidney: No significant changes, number of animals: 6
  Right Kidney: Tubular basophilia, number of animals: 0
  Right Kidney: Tubular changes, number of animals: 0
  Heart: No significant changes, number of animals: 3**
[3]; [7]
  Heart: Mineralization, mean severity score: 3.0
  Liver: Mixed cell infiltration, mean severity score: 1.0
Human B-cells
  Normalized IL-6 Response (Percentage of Positive Control): 5%
  B-cell stimulatory activity: low B-cell stimulatory activity

## 5′-TGC TGC TCC TGG AGI GGT TG-HEG-T-3′ (DNA TGCTGCTCCTGGAGNGGTTGNT; inosine, internal HEG spacer, chemistry not fully specified) [SEQ ID NO:144]
[1]
  fraction in monomer form: 100%
[2]; rat, 10 mg/kg
  Liver: hepatocellular cytoplasmic vacuolation: hepatocellular cytoplasmic vacuolation
[2]; rat, 90 mg/kg
  Heart: cellular vacuolation: present in some animals
  Kidney: tubular basophilia: occurred
  Liver: hepatocellular cytoplasmic vacuolation: hepatocellular cytoplasmic vacuolation
  Liver: hepatocellular necrosis: hepatocellular necrosis
[3]; 100 mg/kg
  Heart: Chronic inflammation, number of animals: 1
  Heart: Mineralization, number of animals: 2
  Liver: Liver changes, number of animals: 6
  Liver: Mixed cell infiltration, number of animals: 6
  Liver: No significan changes, number of animals: 0
  Right Kidney: No significant changes, number of animals: 0
  Right Kidney: Tubular basophilia, number of animals: 0
  Right Kidney: Tubular changes, number of animals: 6
  Heart: No significant changes, number of animals: 1**
[3]; [7]
  Heart: Chronic inflammation, mean severity score: 3.0
  Heart: Mineralization, mean severity score: 2.5
  Liver: Liver changes, mean severity score: 2.0
  Liver: Mixed cell infiltration, mean severity score: 2.0
  Right Kidney: Tubular changes, mean severity score: 2.0
Human B-cells
  Normalized IL-6 Response (Percentage of Positive Control): 10%
  B-cell stimulatory activity: low B-cell stimulatory activity
